For data set [1], the target named is T1, MMP-2FL (full length Gelatinase A) (Homo sapiens, UniProt P08253).
T1 sequence (P08253 110-660): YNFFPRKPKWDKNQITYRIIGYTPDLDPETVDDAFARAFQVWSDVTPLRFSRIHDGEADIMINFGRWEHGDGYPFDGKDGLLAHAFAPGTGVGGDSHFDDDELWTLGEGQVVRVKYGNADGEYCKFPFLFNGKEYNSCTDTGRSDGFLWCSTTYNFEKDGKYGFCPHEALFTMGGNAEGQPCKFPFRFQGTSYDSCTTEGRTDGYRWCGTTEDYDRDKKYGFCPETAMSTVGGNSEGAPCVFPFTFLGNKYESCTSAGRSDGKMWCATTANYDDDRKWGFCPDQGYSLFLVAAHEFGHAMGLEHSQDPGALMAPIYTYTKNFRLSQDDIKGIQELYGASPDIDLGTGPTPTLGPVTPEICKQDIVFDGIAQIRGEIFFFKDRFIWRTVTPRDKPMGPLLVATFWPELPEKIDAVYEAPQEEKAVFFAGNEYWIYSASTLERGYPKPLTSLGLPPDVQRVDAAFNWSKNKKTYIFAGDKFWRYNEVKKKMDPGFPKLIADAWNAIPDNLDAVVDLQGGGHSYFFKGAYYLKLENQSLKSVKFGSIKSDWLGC
The data set is described as follows: Thiopeptolide substrate hydrolysis inhibition assay, MMP-2FL. Type of data set: biochemical. The note with it: Table II; micromolar concentration; HEPES pH 7.0. The text has this: (§1) Thiopeptolide substrates show virtually no decomposition or hydrolysis at or below neutral pH in the absence of a matrix metalloproteinase enzyme.

Data set [2] has as its target MMP-14CD (catalytic domain of MMP-14) (Homo sapiens, UniProt P50281). The data set is described as follows: Thiopeptolide substrate hydrolysis inhibition assay, MMP-14CD. As to conditions: Table II; micromolar concentration; HEPES pH 7.0. Type of data set: biochemical.
Text: as §1

Data set [3] concerns the target T2, MMP-7FL (full-length matrilysin) (Homo sapiens, UniProt P09237).
T2 sequence (P09237 95-267): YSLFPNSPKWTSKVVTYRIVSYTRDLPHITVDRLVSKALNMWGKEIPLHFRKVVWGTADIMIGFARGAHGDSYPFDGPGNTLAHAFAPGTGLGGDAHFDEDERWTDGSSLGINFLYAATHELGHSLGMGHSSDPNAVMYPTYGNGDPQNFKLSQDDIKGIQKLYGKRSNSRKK
The data set is described as follows: Thiopeptolide substrate hydrolysis inhibition assay, MMP-7FL. It counts as biochemical. As to conditions: Table II; micromolar concentration; HEPES pH 7.0.
Text: as §1

Another data set deals with T3, MMP-12CD (Homo sapiens, UniProt P39900).
T3 construct: 12CD
The data set is described as follows: Thiopeptolide substrate hydrolysis inhibition assay, MMP-12CD. It counts as biochemical. The note with it: Table II; micromolar concentration; HEPES pH 7.0.
Text: as §1

For data set [4], the target named is MMP-13CD (catalytic domain of collagenase-3) (Homo sapiens, UniProt P45452). Briefly: Thiopeptolide substrate hydrolysis inhibition assay, MMP-13CD. Type of data set: biochemical.
Text: as §1

Data set [5] addresses MMP-3CD (catalytic domain of stromelysin-1) (Homo sapiens, UniProt P08254). Briefly: Thiopeptolide substrate hydrolysis inhibition assay, MMP-3CD. Type of data set: biochemical. The note with it: Table II; micromolar concentration; MES buffer pH 6.0. How it is done:
as §1
It should be appreciated that the assay buffer used with MMP-3CD is 50 mM N-morpholinoethanesulfonate (“MES”) at pH 6.0 rather than the HEPES buffer at pH 7.0 described above.

Data set [6] addresses MMP-9FL (full-length Gelatinase B) (Homo sapiens, UniProt P14780). The data set is described as follows: Thiopeptolide substrate hydrolysis inhibition assay, MMP-9FL. It counts as biochemical. As to conditions: Table II; micromolar concentration; HEPES pH 7.0.
Text: as §1

Data set [7] deals with T4, MMP-1FL (full-length interstitial collagenase) (Homo sapiens, UniProt P03956).
T4 sequence (P03956 100-469): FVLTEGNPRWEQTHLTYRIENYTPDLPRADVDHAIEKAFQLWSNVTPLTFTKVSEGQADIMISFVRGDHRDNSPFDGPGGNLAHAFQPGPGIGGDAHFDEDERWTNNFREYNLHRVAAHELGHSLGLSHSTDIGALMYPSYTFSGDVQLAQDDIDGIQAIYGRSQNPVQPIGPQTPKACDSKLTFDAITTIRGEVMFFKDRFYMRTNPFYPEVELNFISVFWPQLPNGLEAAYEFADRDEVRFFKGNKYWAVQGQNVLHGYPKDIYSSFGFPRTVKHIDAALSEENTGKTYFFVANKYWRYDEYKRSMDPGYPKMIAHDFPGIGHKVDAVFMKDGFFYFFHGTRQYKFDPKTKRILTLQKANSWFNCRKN
Briefly: Thiopeptolide substrate hydrolysis inhibition assay, MMP-1FL. It counts as biochemical. The note with it: Table II; micromolar concentration; HEPES pH 7.0.
Text: as §1

Where [8] appears, read: Table I, thiopeptolide substrate, HEPES pH 7.0, 22° C., read-out: MMP-13CD IC50.
Setting [9] is: Table II, micromolar concentration, HEPES pH 7.0, read-out: IC50 MMP-13CD.

SMILES strings stand for the structures. Where two headings read alike, the source gives them in different places. Some results are limits rather than exact numbers.

Chain of MMP-3CD (catalytic domain of stromelysin-1) (P08254 100-272 limits assumed): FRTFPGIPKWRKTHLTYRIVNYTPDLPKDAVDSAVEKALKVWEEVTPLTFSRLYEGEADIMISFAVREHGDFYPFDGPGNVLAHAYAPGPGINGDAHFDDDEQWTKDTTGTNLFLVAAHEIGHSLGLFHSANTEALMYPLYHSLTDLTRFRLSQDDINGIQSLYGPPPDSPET
T3 sequence (P39900 106-263 limits assumed): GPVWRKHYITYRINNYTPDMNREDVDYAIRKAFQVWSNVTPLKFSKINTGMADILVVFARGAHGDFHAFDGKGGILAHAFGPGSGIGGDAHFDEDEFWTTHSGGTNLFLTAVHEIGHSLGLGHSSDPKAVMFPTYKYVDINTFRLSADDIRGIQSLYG
Chain of MMP-9FL (full-length Gelatinase B) (P14780 94-707, species assumed): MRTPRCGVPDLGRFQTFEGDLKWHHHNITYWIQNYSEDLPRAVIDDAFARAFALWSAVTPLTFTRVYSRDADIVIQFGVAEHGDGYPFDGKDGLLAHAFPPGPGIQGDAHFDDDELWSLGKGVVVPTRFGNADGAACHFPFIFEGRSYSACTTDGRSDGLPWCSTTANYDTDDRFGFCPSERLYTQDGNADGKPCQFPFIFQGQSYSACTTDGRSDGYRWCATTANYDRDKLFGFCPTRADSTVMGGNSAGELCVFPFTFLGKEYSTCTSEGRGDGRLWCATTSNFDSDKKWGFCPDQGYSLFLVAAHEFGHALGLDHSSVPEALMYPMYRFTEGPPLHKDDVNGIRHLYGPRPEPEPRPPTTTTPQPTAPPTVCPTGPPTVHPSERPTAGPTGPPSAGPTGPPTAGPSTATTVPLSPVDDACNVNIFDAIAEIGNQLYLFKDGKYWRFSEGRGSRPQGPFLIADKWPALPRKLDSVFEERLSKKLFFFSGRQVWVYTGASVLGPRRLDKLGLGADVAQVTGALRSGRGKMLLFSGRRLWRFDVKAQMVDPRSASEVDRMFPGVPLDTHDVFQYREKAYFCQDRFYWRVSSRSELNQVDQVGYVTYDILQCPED

On to `CCCCNC(=O)NS(=O)(=O)c1ccc(Cn2c(=O)c3cc(C(=O)NCc4cccc(OC)c4)sc3n(C)c2=O)cc1` [Example 231a], for which the IC50 (as a rule, the concentration that gives 50% inhibition) in [1] came to 50 µM; in data set [2], 30 µM; in data set [3], 46 µM; against MMP-12CD it was 30 µM; in data set [4] (setting [8]), 0.00895 µM; in [4] (setting [9]) it was 0.009 µM. The IC50 in data set [5] was 13 µM; in data set [6], 91 µM.

As for `COc1ccc(CNC(=O)c2cc3c(=O)n(Cc4ccc([N+](=O)[O-])nc4)c(=O)n(C)c3s2)cc1` [Example 369, 1-Methyl-3-(6-nitro-pyridin-3-ylmethyl)-2,4-dioxo-1,2,3,4-tetrahydro-thieno[2,3-d]pyrimidine-6-carboxylic acid 4-methoxy-benzylamide], the IC50 in data set [1] is 30 µM; in [2], 30 µM; in [3], 30 µM; at MMP-12CD, 30 µM; in data set [7], 10 µM; in [4] (setting [8]) it was 1.04 µM. In addition, the concentration for half-maximal inhibition (IC50) in data set [4] (setting [9]) was 1.04 µM; in data set [5], 10 µM; in [6] it was 30 µM.

For `O=C(OCc1ccncc1)c1cc2c(=O)n(Cc3ccc(Br)cc3)c(=O)[nH]c2s1` [Example 49, 3-(4-Bromo-benzyl)-2,4-dioxo-1,2,3,4-tetrahydro-thieno[2,3-d]pyrimidine-6-carboxylic acid pyridin-4-ylmethyl ester], the IC50 in data set [4] (setting [8]) was 0.26 µM; in data set [4] (setting [9]), 0.26 µM; in [5] it was 23 µM.

As for `COc1cccc(CNC(=O)c2cc3c(=O)n(CC#N)c(=O)n(C)c3s2)c1` [Example 224, 3-Cyanomethyl-1-methyl-2,4-dioxo-1,2,3,4-tetrahydro-thieno[2,3-d]pyrimidine-6-carboxylic acid 3-methoxy-benzylamide], the melting point – broadly, the temperature, or range, at which the solid turns liquid – fell in the range of 159 to 163 °C. In addition, the concentration for half-maximal inhibition (IC50) in data set [4] (setting [8]) was 0.783 µM.

On to `Cc1c(C(=O)OCc2ccccc2)sc2[nH]c(=O)n(CCc3ccccc3)c(=O)c12` [Example 5, 5-Methyl-2,4-dioxo-3-phenylethyl-1,2,3,4-tetrahydro-thieno[2,3-d]pyrimidine-6-carboxylic acid benzyl ester], for which the melting point was 207 to 209 °C. In addition, the IC50 in data set [4] (setting [8]) came to 51 µM.

Take `COc1cccc(CNC(=O)c2cc3c(=O)n(CCS(=O)(=O)c4ccc(Cl)cc4)c(=O)n(C)c3s2)c1` [Example 246, 3-[2-(4-Chloro-benzenesulfonyl)-ethyl]-1-methyl-2,4-dioxo-1,2,3,4-tetrahydro-thieno[2,3-d]pyrimidine-6-carboxylic acid 3-methoxy-benzylamide]: the IC50 in data set [1] worked out at 30 µM; in data set [2], 36 µM; in [3], 48 µM; at MMP-12CD, 30 µM; in [4] (setting [8]), 5.65 µM; in data set [4] (setting [9]), 5.65 µM. In addition, the IC50 in data set [5] came out at 23 µM; in [6] it was 30 µM.

Compound `O=C(OCc1ccccc1)c1cc2c(=O)n(Cc3ccccc3)c(=O)[nH]c2s1` [Example 1, 3-Benzyl-2,4-dioxo-1,2,3,4-tetrahydro-thieno[2,3-d]pyrimidine-6-carboxylic acid benzyl ester] had a melting point of 195 to 197 °C. Besides, in data set [4] (setting [8]), the IC50 turned out to be 0.74 µM. Moreover, the half-maximal inhibitory concentration (IC50) in data set [4] (setting [9]) was 0.61 µM. Also, the IC50 in [5] was found to be 18 µM.

For the compound `COc1cccc(CNC(=O)c2cc3c(=O)n(Cc4ccc(S(=O)(=O)N5CCC(C)CC5)cc4)c(=O)n(C)c3s2)c1` [Example 47, 1-Methyl-3-[4-(4-methyl-piperidine-1-sulfonyl)-benzyl]-2,4-dioxo-1,2,3,4-tetrahydro-thieno[2,3-d]pyrimidine-6-carboxylic acid 3-methoxy-benzylamide], the IC50 in [1] is 30 µM; in [2], 10 µM; in [3] it was 14 µM; at MMP-12CD, 30 µM; in data set [7] it was 30 µM; in [4] (setting [9]), 0.038 µM. Moreover, the IC50 in data set [5] and in data set [6] was 30 µM throughout.

Compound `Cc1ccc(-n2c(=O)[nH]c3sc(C(=O)OCc4ccccc4)c(C)c3c2=O)cc1` [Example 7, 5-Methyl-2,4-dioxo-3-p-tolyl-1,2,3,4-tetrahydro-thieno[2,3-d]-6-carboxylic acid benzyl ester] returned a melting point of 267 to 269 °C. The IC50 in [4] (setting [8]) turned out to be 10 µM.

For the compound `COC(=O)c1ccc(Cn2c(=O)c3cc(C(N)=O)sc3n(C)c2=O)cc1C` [Example 249a], the IC50 in data set [1] was 30 µM; in data set [2], 30 µM; in data set [3], 30 µM; in [4] (setting [8]), 0.64 µM; in data set [4] (setting [9]), 0.64 µM; in data set [6], 30 µM.

Turning to `COc1ccc(CNC(=O)c2cc3c(=O)n(Cc4ccc(S(N)(=O)=O)cc4)c(=O)n(C)c3s2)cc1` [Example 217, 1-Methyl-2,4-dioxo-3-(4-sulfamoyl-benzyl)-1,2,3,4-tetrahydro-thieno[2,3-d]pyrimidine-6-carboxylic acid 4-methoxy-benzylamide], the IC50 against MMP-12CD stood at 30 µM; in data set [4] (setting [8]) it was 0.0785 µM; in data set [4] (setting [9]), 0.0785 µM; in [5], 27 µM; in data set [6], 30 µM.

Consider `O=C(OCc1ccc(/C=C/c2ccccc2)cc1)c1cc2c(=O)n(Cc3ccccc3)c(=O)[nH]c2s1` [Example 4], for which the melting point lay in the range of 247 to 249 °C. Further, the 50% inhibitory concentration (IC50) in data set [4] (setting [8]) amounted to 16 µM.

With `CCn1c(=O)n(Cc2ccccc2)c(=O)c2cc(C(=O)OCc3ccccc3)sc21` [Example 73, 3-Benzyl-1-ethyl-2,4-dioxo-1,2,3,4-tetrahydro-thieno[2,3-d]pyrimidine-6-carboxylic acid benzyl ester], the melting point is 147 to 148 °C. The IC50 in [4] (setting [8]) was over 100 µM.

As to `Cn1c(=O)n(Cc2ccccc2)c(=O)c2cc(C(=O)OCc3ccncc3)sc21` [Example 303, 3-Benzyl-1-methyl-2,4-dioxo-1,2,3,4-tetrahydro-thieno[2,3-d]pyrimidine-6-carboxylic acid pyridin-4-ylmethyl ester], the IC50 in data set [3] is 32 µM; in [4] (setting [8]), 0.0036 µM; in data set [4] (setting [9]), 0.0036 µM; in [5], 6 µM; in data set [6], 30 µM.

`COc1cccc(CNC(=O)c2cc3c(=O)n(Cc4ccc(CC(=O)O)cc4)c(=O)n(C)c3s2)c1` [Example 39, {4-[6-(3-Methoxy-benzylcarbamoyl)-1-methyl-2,4-dioxo-1,4-dihydro-2H-thieno[2,3-d]pyrimidin-3-ylmethyl]-phenyl}-acetic acid]: the figures for the IC50 (on MMP-12CD; in data set [4] (setting [9]); in [5]) were 10 µM, 0.0038 µM and 16 µM, respectively.

Turning to `COc1ccc(CNC(=O)c2cc3c(=O)n(Cc4ccc(/C(N)=N/O)cc4)c(=O)n(C)c3s2)cc1` [Example 220, 3-[4-(N-Hydroxycarbamimidoyl)-benzyl]-1-methyl-2,4-dioxo-1,2,3,4-tetrahydro-thieno[2,3-d]pyrimidine-6-carboxylic acid 4-methoxy-benzylamide], the melting point is 226 to 228 °C (dec.). For the same compound, the IC50 in [4] (setting [8]) worked out at 0.061 µM.
